The assay has as its target T1, PI3K gamma (Homo sapiens, UniProt P48736).
T1 construct: His tag (C); made in house; host or cells: construct from Roger Williams lab (pVL1393); baculovirus BV950; Tn5 (Trichoplusia ni) or TiniPro insect cells
The experiment in a line: PI3K gamma kinase assay (Kinase-Glo luminescence). Format: biochemical. As to conditions: read-out: PI3Kgamma/IC50. As to the method: In a more preferred assay, the kinase reaction is performed in a final volume of 10 μL per well of a low volume non binding CORNING, 384 well black plate (Cat. No. #3676). The final concentrations of ATP and phosphatidyl inositol (PI) in the assay are 1 μM and 10 μg/mL respectively. The reaction is started by the addition of ATP.
The components of the assay are added per well as follows:
50 nL test compounds in 90% DMSO per well, in columns 1-20, 8 concentrations (⅓ and 1/3.33 serial dilution step) in single. • Low control: […] of 90% DMSO in half the wells of columns 23-24 (0.45% in final). • High control: 50 nL of reference compound (e.g. compound of Example 7 in WO 2006/122806) in the other half of columns 23-24 (2.5 μM in final). • Standard: 50 nL of reference compound as just mentioned diluted as the test compounds in columns 21-22 • 20 mL ‘buffer’ are prepared per assay: • 200 μL of 1M TRIS HCl pH7.5 (10 mM in final) • 60 μL of 1M MgCl2 (3 mM in final) • 500 μL of 2M NaCl (50 mM in final) • 100 μL of 10% CHAPS (0.05% in final) • 200 μL of 100 mM DTT (1 mM in final) • 18.94 mL of nanopure water • 10 mL ‘PI’ are prepared per assay: • 200 μL of 1 mg/ml L-alpha-Phosphatidylinositol (Liver Bovine, Avanti Polar Lipids Cat. No. 840042C MW=909.12) prepared in 3% OctylGlucoside (10 μg/ml in final) • 9.8 mL of ‘buffer’ • 10 mL ‘ATP’ are prepared per assay: • 6.7 μL of 3 mM stock of ATP giving a final concentration of 1 μM per well • 10 mL of ‘buffer’ • 2.5 mL of each PI3K construct are prepared per assay in ‘PI’ with the following final concentration: • 10 nM PI3K alfa EMV B1075 • 25 nM beta EMV BV949 • 10 nM delta EMV BV1060 • 150 nM gamma EMV BV950 • 5 μL of ‘PI/PI3K’ are added per well. • 5 μl ‘ATP’ are added per well to start the reaction. • The plates are then incubated at room temperature for 60 minutes (alfa, beta, delta) or 120 minutes (gamma). • The reaction is terminated by the addition of 10 μL Kinase-Glo (Promega Cat. No. #6714). • The assay plates are read after 10 minutes in Synergy 2 reader (BioTek, Vermont USA) with an integration time of 100 milliseconds and sensitivity set to 191. • Output: The High control is around 60′000 counts and the Low control is 30′000 or lower • This luminescence assay gives a useful Z′ ratio between 0.4 and 0.7
PI3K gamma is purified in two chromatographic steps: immobilized metal affinity chromatography (IMAC) on a Ni Sepharose resin (GE Healthcare) and gel filtration (GFC) utilizing a Superdex 200 26/60 column (GE Healthcare). All buffers are chilled to 4° C. and lysis is performed chilled on ice. Column fractionation is performed rapidly at room temperature. Typically frozen insect cells are lysed in a hypertonic lysis buffer and applied to a prepared IMAC column. The resin is washed with 3-5 column volumes of lysis buffer, followed by 3-5 column volumes wash buffer containing 45 mM imidazole, and the target protein is then eluted with a buffer containing 250 mM imidazole. Fractions are analyzed by Coomassie stained SDS-PAGE gels, and fractions containing target protein are pooled and applied to a prepared GFC column. Fractions from the GFC column are analyzed by Coomassie stained SDS-PAGE gels, and fractions containing target protein are pooled. The final pool is dialyzed into a storage buffer containing 50% glycerol and stored at −20° C. The final pool is assayed for activity in the phosphoinostitol kinase assay.
IC50 is determined by a four parameter curve fitting routine that comes along with “excel fit”. A 4 Parameter logistic equation is used to calculate IC50 values (IDBS XLfit) of the percentage inhibition of each compound at 8 concentrations (usually 10, 3.0, 1.0, 0.3, 0.1, 0.030, 0.010 and 0.003 μM). Alternatively, IC50 values are calculated using idbsXLfit model 204, which is a 4 parameter logistic model.
T1 sequence (P48736 144-1102 limits assumed): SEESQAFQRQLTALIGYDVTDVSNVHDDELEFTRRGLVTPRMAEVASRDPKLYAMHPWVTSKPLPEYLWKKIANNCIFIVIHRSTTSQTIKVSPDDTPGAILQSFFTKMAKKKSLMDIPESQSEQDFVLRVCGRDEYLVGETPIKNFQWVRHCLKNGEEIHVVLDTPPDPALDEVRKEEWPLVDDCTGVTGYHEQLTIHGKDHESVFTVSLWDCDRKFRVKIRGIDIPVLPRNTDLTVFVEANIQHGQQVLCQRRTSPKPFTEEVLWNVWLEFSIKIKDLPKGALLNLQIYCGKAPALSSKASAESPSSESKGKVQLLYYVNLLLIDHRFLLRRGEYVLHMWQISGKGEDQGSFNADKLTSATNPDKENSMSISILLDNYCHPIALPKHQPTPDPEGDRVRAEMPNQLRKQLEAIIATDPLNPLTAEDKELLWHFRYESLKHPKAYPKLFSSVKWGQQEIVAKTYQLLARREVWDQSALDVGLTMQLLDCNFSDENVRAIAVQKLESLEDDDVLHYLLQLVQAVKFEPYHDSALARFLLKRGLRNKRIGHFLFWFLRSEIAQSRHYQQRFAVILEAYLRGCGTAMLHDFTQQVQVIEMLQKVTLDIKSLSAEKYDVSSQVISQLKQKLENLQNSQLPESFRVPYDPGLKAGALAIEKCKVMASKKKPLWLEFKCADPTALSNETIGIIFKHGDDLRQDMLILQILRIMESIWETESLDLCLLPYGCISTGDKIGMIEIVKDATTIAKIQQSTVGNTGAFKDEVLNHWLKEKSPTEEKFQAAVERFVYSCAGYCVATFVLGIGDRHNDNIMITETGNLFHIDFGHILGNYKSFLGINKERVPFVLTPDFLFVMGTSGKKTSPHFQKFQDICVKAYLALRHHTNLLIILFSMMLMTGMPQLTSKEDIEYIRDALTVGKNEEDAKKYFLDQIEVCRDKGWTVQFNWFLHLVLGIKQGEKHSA
Regarding `COc1ncccc1-n1c(=O)n(C)c2cnc3ccc(-c4cnc5[nH]ccc5c4)cc3c21` [Example 1.2, 1-(2-Methoxy-pyridin-3-yl)-3-methyl-8-(1H-pyrrolo[2,3-b]pyridin-5-yl)-1,3-dihydro-imidazo[4,5-c]quinolin-2-one], the IC50 was determined as 168 nM.
With `COc1ncccc1-n1c(=O)n(C)c2cnc3ccc(-c4ccc(C(N)=O)cc4)cc3c21` [Example 1.6, 4-[1-(2-Methoxy-pyridin-3-yl)-3-methyl-2-oxo-2,3-dihydro-1H-imidazo[4,5-c]quinolin-8-yl]-benzamide] the figure was 120 nM; with `Cc1ncccc1-n1c(=O)n(C)c2cnc3ccc(-c4ccc(C(N)=O)cc4)cc3c21` [Example 2.3, 4-[3-Methyl-1-(2-methyl-pyridin-3-yl)-2-oxo-2,3-dihydro-1H-imidazo[4,5-c]quinolin-8-yl]-benzamide], 230 nM; with `Cc1ncccc1-n1c(=O)n(C)c2cnc3ccc(-c4ccc(CO)nc4)cc3c21` [Example 2.6, 8-(6-Hydroxymethyl-pyridin-3-yl)-3-methyl-1-(2-methyl-pyridin-3-yl)-1,3-dihydro-imidazo[4,5-c]quinolin-2-one], 913 nM.
`Cc1ncccc1-n1c(=O)n(C)c2cnc3ccc(-c4ccc(N)nc4)cc3c21` [Example 2.7, 8-(6-Amino-pyridin-3-yl)-3-methyl-1-(2-methyl-pyridin-3-yl)-1,3-dihydro-imidazo[4,5-c]quinolin-2-one]: the IC50 turned out to be 388 nM.
Consider `COc1ccc(-c2ccc3ncc4c(c3c2)n(-c2cccnc2C)c(=O)n4C)cc1OC` [Example 2.9, 8-(3,4-Dimethoxy-phenyl)-3-methyl-1-(2-methyl-pyridin-3-yl)-1,3-dihydro-imidazo[4,5-c]quinolin-2-one], for which the IC50 stood at 126 nM.
For the compound `Cc1ncccc1-n1c(=O)n(C)c2cnc3ccc(-c4cnc(N)c(C(F)(F)F)c4)cc3c21` [Example 2.11, 8-(6-Amino-5-trifluoromethyl-pyridin-3-yl)-3-methyl-1-(2-methyl-pyridin-3-yl)-1,3-dihydro-imidazo[4,5-c]quinolin-2-one], the IC50 worked out at 124 nM.
As for `COc1ccc(-c2ccc3ncc4c(c3c2)n(-c2cccnc2C)c(=O)n4C)cn1` [Example 2.12, 8-(6-Methoxy-pyridin-3-yl)-3-methyl-1-(2-methyl-pyridin-3-yl)-1,3-dihydro-imidazo[4,5-c]quinolin-2-one], the figure is 242 nM; as for `CNc1ccc(-c2ccc3ncc4c(c3c2)n(-c2cccnc2C)c(=O)n4C)cn1` [Example 2.13, 3-Methyl-8-(6-methylamino-pyridin-3-yl)-1-(2-methyl-pyridin-3-yl)-1,3-dihydro-imidazo[4,5-c]quinolin-2-one], 195 nM; as for `Cc1cccnc1-n1c(=O)n(C)c2cnc3ccc(-c4ccc(C(N)=O)cc4)cc3c21` [Example 3.3, 4-[3-Methyl-1-(3-methyl-pyridin-2-yl)-2-oxo-2,3-dihydro-1H-imidazo[4,5-c]quinolin-8-yl]-benzamide], 322 nM.
For `CNc1ncc(-c2ccc3ncc4c(c3c2)n(-c2ncccc2C)c(=O)n4C)cn1` [Example 3.4, 3-Methyl-8-(2-methylamino-pyrimidin-5-yl)-1-(3-methyl-pyridin-2-yl)-1,3-dihydro-imidazo[4,5-c]quinolin-2-one], the IC50 is 386 nM.
Turning to `CNC(=O)c1ccc(-c2ccc3ncc4c(c3c2)n(-c2ncccc2C)c(=O)n4C)cc1` [Example 3.5, N-Methyl-4-[3-methyl-1-(3-methyl-pyridin-2-yl)-2-oxo-2,3-dihydro-1H-imidazo[4,5-c]quinolin-8-yl]-benzamide], the IC50 was 434 nM.
As for `CCOc1ccc(-c2ccc3ncc4c(c3c2)n(-c2ncccc2C)c(=O)n4C)cn1` [Example 3.6, 8-(6-Ethoxy-pyridin-3-yl)-3-methyl-1-(3-methyl-pyridin-2-yl)-1,3-dihydro-imidazo[4,5-c]quinolin-2-one], the figure is 522 nM.
`COc1ccc(-c2ccc3ncc4c(c3c2)n(-c2ncccc2C)c(=O)n4C)cc1OC` [Example 3.10, 8-(3,4-Dimethoxy-phenyl)-3-methyl-1-(3-methyl-pyridin-2-yl)-1,3-dihydro-imidazo[4,5-c]quinolin-2-one]: the IC50 worked out at 307 nM.
Consider `Cc1cccnc1-n1c(=O)n(C)c2cnc3ccc(-c4ccc(N(C)C)nc4)cc3c21` [Example 3.11, 8-(6-Dimethylamino-pyridin-3-yl)-3-methyl-1-(3-methyl-pyridin-2-yl)-1,3-dihydro-imidazo[4,5-c]quinolin-2-one], for which the IC50 amounted to 846 nM.
As for `Cc1cccnc1-n1c(=O)n(C)c2cnc3ccc(-c4cnc(N)c(C(F)(F)F)c4)cc3c21` [Example 3.12, 8-(6-Amino-5-trifluoromethyl-pyridin-3-yl)-3-methyl-1-(3-methyl-pyridin-2-yl)-1,3-dihydro-imidazo[4,5-c]quinolin-2-one], the figure is 202 nM.
With `CCOc1ccc(-c2ccc3ncc4c(c3c2)n(-c2cnccc2C)c(=O)n4C)cn1` [Example 4.2, 8-(6-Ethoxy-pyridin-3-yl)-3-methyl-1-(4-methyl-pyridin-3-yl)-1,3-dihydro-imidazo[4,5-c]quinolin-2-one], the IC50 stood at 546 nM.
As for `COc1ccc(-c2ccc3ncc4c(c3c2)n(-c2cnccc2C)c(=O)n4C)cn1` [Example 4.3, 8-(6-Methoxy-pyridin-3-yl)-3-methyl-1-(4-methyl-pyridin-3-yl)-1,3-dihydro-imidazo[4,5-c]quinolin-2-one], the figure is 439 nM; as for `Cn1c(=O)n(-c2cccnc2)c2c3cc(-c4ccc(CO)nc4)ccc3ncc21` [Example 5.1, 8-(6-Hydroxymethyl-pyridin-3-yl)-3-methyl-1-pyridin-3-yl-1,3-dihydro-imidazo[4,5-c]quinolin-2-one], 943 nM; as for `CN(C)c1ccc(-c2ccc3ncc4c(c3c2)n(-c2cccnc2)c(=O)n4C)cn1` [Example 5.3, 8-(6-Dimethylamino-pyridin-3-yl)-3-methyl-1-pyridin-3-yl-1,3-dihydro-imidazo[4,5-c]quinolin-2-one], 362 nM.
Consider `CCOc1ccc(-c2ccc3ncc4c(c3c2)n(-c2cccnc2F)c(=O)n4C)cn1` [Example 6.1, 8-(6-Ethoxy-pyridin-3-yl)-1-(2-fluoro-pyridin-3-yl)-3-methyl-1,3-dihydro-imidazo[4,5-c]quinolin-2-one], for which the IC50 was found to be 206 nM.
As for `Cn1c(=O)n(-c2cccnc2F)c2c3cc(-c4cnc(N)c(C(F)(F)F)c4)ccc3ncc21` [Example 6.2, 8-(6-Amino-5-trifluoromethyl-pyridin-3-yl)-1-(2-fluoro-pyridin-3-yl)-3-methyl-1,3-dihydro-imidazo[4,5-c]quinolin-2-one], the figure is 139 nM.
